For the test, the target named is HPK1 (Homo sapiens (Human), UniProt Q92918). Description: HPK1 Lantha binding assay ("Lanth"). The settings on record: binding assays; Morrison Ki fit. Summed up: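 TR-FRET binding competition using 2 nM HPK1, 2 nM Eu-anti-GST antibody and 15 nM Tracer222 at 23 °C. Compound was incubated 1 h with enzyme and antibody, then 1 h after tracer addition, with an 11-point 5-fold dilution series. Ki obtained from a Morrison fit that corrects for tracer concentration and Kd.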
Sequence of HPK1 (Q92918 1-346 limits assumed): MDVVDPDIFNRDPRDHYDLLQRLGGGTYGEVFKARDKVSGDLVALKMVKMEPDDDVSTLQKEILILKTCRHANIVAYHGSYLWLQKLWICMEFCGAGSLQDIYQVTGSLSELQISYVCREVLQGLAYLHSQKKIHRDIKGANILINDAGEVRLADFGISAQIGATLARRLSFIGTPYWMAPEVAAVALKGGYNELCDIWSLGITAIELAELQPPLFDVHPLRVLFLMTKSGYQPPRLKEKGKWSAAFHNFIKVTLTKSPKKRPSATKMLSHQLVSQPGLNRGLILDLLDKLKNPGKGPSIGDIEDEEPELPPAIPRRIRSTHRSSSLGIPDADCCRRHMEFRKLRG
As to `NC1CN(C(=O)c2cccc(-c3cnc4c(c3Cl)C3(CC3)CN4)c2F)C1` [Compound 51, (3-Aminoazetidin-1-yl)(3-(4′-chloro-1′,2′-dihydrospiro[cyclopropane-1,3′-pyrrolo[2,3-b]pyridin]-5′-yl)-2-fluorophenyl)methanone], the Ki was 68.2 nM. The value for `COc1c(-c2ccc(N)c(C(=O)N(C)CCO)c2F)cnc2c1C1(CCC1)CN2` [Compound 52, 6-Amino-2-fluoro-N-(2-hydroxyethyl)-3-(4′-methoxy-1′,2′-dihydrospiro[cyclobutane-1,3′-pyrrolo[2,3-b]pyridin]-5′-yl)-N-methylbenzamide] was 19 nM; that for `Cc1c(-c2ccc(N)c(C(=O)N(C)C)c2F)cnc2c1C1(CCC1)CN2` [Compound 53, 6-Amino-2-fluoro-N,N-dimethyl-3-(4′-methyl-1′,2′-dihydrospiro[cyclobutane-1,3′-pyrrolo[2,3-b]pyridin]-5′-yl)benzamide] was 28.9 nM. In turn, `CC(=O)Nc1cc(C#N)cc2c(-c3cnc4c(c3)C3(CC3)CN4)cn(C)c12` [Compound 54, N-(5-Cyano-3-(1′,2′-dihydrospiro[cyclopropane-1,3′-pyrrolo[2,3-b]pyridin]-5′-yl)-1-methyl-1H-indol-7-yl)acetamide] came in with a Ki of 64.4 nM. Compound `O=C1NCCN1c1cccc(-c2cnc3c(c2Cl)C2(CC2)CN3)c1` [Compound 55, 1-(3-(4′-Chloro-1′,2′-dihydrospiro[cyclopropane-1,3′-pyrrolo[2,3-b]pyridin]-5′-yl)phenyl)imidazolidin-2-one] gave a Ki of 84.7 nM.

Regarding `N#Cc1cc2c(-c3cnc4c(c3)C3(CC3)CN4)c[nH]c2cn1` [Compound 56, 3-(1′,2′-Dihydrospiro[cyclopropane-1,3′-pyrrolo[2,3-b]pyridin]-5′-yl)-1H-pyrrolo[2,3-c]pyridine-5-carbonitrile], the Ki stood at 35.3 nM. Compared with the last compound, the Ki is about 2.4-fold lower.

Compound `Cn1cccc(-c2cccc(-c3cnc4c(c3Cl)C3(CC3)CN4)c2)c1=O` [Compound 57, 3-(3-(4′-Chloro-1′,2′-dihydrospiro[cyclopropane-1,3′-pyrrolo[2,3-b]pyridin]-5′-yl)phenyl)-1-methylpyridin-2(1H)-one] gave a Ki of 9.06 nM.

`O=C1NCCCC1c1cccc(-c2cnc3c(c2Cl)C2(CC2)CN3)c1` (stereo not drawn) [Compound 58, 3-(3-(4′-Chloro-1′,2′-dihydrospiro[cyclopropane-1,3′-pyrrolo[2,3-b]pyridin]-5′-yl)phenyl)piperidin-2-one] came in with a Ki of 43.7 nM.

`O=C1NCCCN1c1cccc(-c2cnc3c(c2Cl)C2(CC2)CN3)c1` [Compound 59, 1-(3-(4′-Chloro-1′,2′-dihydrospiro[cyclopropane-1,3′-pyrrolo[2,3-b]pyridin]-5′-yl)phenyl)tetrahydropyrimidin-2(1H)-one] gave a Ki of 14.2 nM. Compared with the last compound, the Ki is about 3.1-fold lower.

Compound `O=C1CCCCN1c1cccc(-c2cnc3c(c2Cl)C2(CC2)CN3)c1` [Compound 60, 1-(3-(4′-Chloro-1′,2′-dihydrospiro[cyclopropane-1,3′-pyrrolo[2,3-b]pyridin]-5′-yl)phenyl)piperidin-2-one] registered an inhibition constant (Ki) of 16 nM. This Ki and that of the compound before are within 1.5-fold of each other. The value for `Nc1cc(-c2cnc3c(c2Cl)C2(CCC(O)C2)CN3)cc(-c2ncccc2CO)c1` (stereo not drawn) [Compound 61, 5′-(3-Amino-5-(3-(hydroxymethyl)pyridin-2-yl)phenyl)-4′-chloro-1′,2′-dihydrospiro[cyclopentane-1,3′-pyrrolo[2,3-b]pyridin]-3-ol] was 12.8 nM; that for `NS(=O)(=O)c1cccc(-c2cnc3c(c2)C2(CC2)CN3)c1` [Compound 62, 3-(1′,2′-Dihydrospiro[cyclopropane-1,3′-pyrrolo[2,3-b]pyridin]-5′-yl)benzenesulfonamide] was 66.4 nM.

Regarding `CS(=O)(=O)c1cccc(-c2cnc3c(c2)C2(CC2)CN3)c1` [Compound 63, 5′-(3-(Methylsulfonyl)phenyl)-1′,2′-dihydrospiro[cyclopropane-1,3′-pyrrolo[2,3-b]pyridine]], the Ki was 84.9 nM.

As for `CC(=O)Nc1ccc(-c2cnc3c(c2)C2(CC2)CN3)cc1C(F)(F)F` [Compound 64, N-(4-(1′,2′-Dihydrospiro[cyclopropane-1,3′-pyrrolo[2,3-b]pyridin]-5′-yl)-2-(trifluoromethyl)phenyl)acetamide], the affinity corresponds to a Ki of 89.1 nM. This Ki and that of the compound before are within 1.5-fold of each other. With `NS(=O)(=O)c1ccc(-c2cnc3c(c2)C2(CC2)CN3)cc1` [Compound 65, 4-(1′,2′-Dihydrospiro[cyclopropane-1,3′-pyrrolo[2,3-b]pyridin]-5′-yl)benzenesulfonamide] the figure was 135 nM. The value for `CN(C)C(=O)c1c(N)ccc(-c2cnc3c(c2)C2(CCC2)CN3)c1F` [Compound 66, 6-Amino-3-(1′,2′-dihydrospiro[cyclobutane-1,3′-pyrrolo[2,3-b]pyridin]-5′-yl)-2-fluoro-N,N-dimethylbenzamide] was 53.1 nM; that for `O=C1NCCCN1c1cccc(-c2cnc3c(c2)C2(CC2)CN3)c1` [Compound 67, 1-(3-(1′,2′-Dihydrospiro[cyclopropane-1,3′-pyrrolo[2,3-b]pyridin]-5′-yl)phenyl)tetrahydropyrimidin-2(1H)-one] was 27.5 nM; that for `Cn1cccc(-c2cccc(-c3cnc4c(c3Cl)[C@]3(CC[C@H](O)C3)CN4)c2)c1=O` [Compound 68c, 3-(3-((1R,3S)-4′-chloro-3-hydroxy-1′,2′-dihydrospiro[cyclopentane-1,3′-pyrrolo[2,3-b]pyridin]-5′-yl)phenyl)-1-methylpyridin-2(1H)-one] was 5.4 nM. As to `C[C@@H]1CNC(=O)N1c1cccc(-c2cnc3c(c2Cl)C2(CC2)CN3)c1` [Compound 69a, (R)-1-(3-(4′-Chloro-1′,2′-dihydrospiro[cyclopropane-1,3′-pyrrolo[2,3-b]pyridin]-5′-yl)phenyl)-5-methylimidazolidin-2-one], the inhibition constant (Ki) came out at 35.6 nM. With `C[C@H]1CNC(=O)N1c1cccc(-c2cnc3c(c2Cl)C2(CC2)CN3)c1` [Compound 69b, (S)-1-(3-(4′-Chloro-1′,2′-dihydrospiro[cyclopropane-1,3′-pyrrolo[2,3-b]pyridin]-5′-yl)phenyl)-5-methylimidazolidin-2-one] the figure was 16 nM; with `O=C1NCCCN1c1cccc(-c2cnc3c(c2)C2(CC2)CN3)n1` [Compound 70, 1-(6-(1′,2′-Dihydrospiro[cyclopropane-1,3′-pyrrolo[2,3-b]pyridin]-5′-yl)pyridin-2-yl)tetrahydropyrimidin-2(1H)-one], 102 nM; with `O=C1NCCN1c1cccc(-c2cnc3c(c2)C2(CC2)CN3)n1` [Compound 71, 1-(6-(1′,2′-Dihydrospiro[cyclopropane-1,3′-pyrrolo[2,3-b]pyridin]-5′-yl)pyridin-2-yl)imidazolidin-2-one], 115 nM.

`c1cc(-c2cnc3c(c2)C2(CC2)CN3)cc(-c2nnn3c2CNCC3)c1` [Compound 72, 5′-(3-(4,5,6,7-Tetrahydro-[1,2,3]triazolo[1,5-a]pyrazin-3-yl)phenyl)-1′,2′-dihydrospiro[cyclopropane-1,3′-pyrrolo[2,3-b]pyridine]]: the Ki was found to be 279 nM. Against the preceding compound, the Ki is about 2.4-fold higher. For the compound `O=C1NCCC1c1cccc(-c2cnc3c(c2Cl)C2(CC2)CN3)c1` (stereo not drawn) [Compound 73], affinity was put at a Ki of 26.1 nM.

With `N#Cc1cc2c(-c3cnc4c(c3)C3(CC3)CN4)c[nH]c2cc1F` [Compound 74], the Ki is 31 nM. With `CN(C)C(=O)c1c(N)ccc(-c2cnc3c(c2Cl)C2(CCC(N(C)CC(N)=O)C2)CN3)c1F` (stereo not drawn) [Compound 75, 6-Amino-3-(3-((2-amino-2-oxoethyl)(methyl)amino)-4′-chloro-1′,2′-dihydrospiro[cyclopentane-1,3′-pyrrolo[2,3-b]pyridin]-5′-yl)-2-fluoro-N,N-dimethylbenzamide] the figure was 251 nM. Compound `CN(C)C(=O)c1c(N)ccc(-c2cnc3c(c2Cl)C2(CCC(NCC(N)=O)C2)CN3)c1F` (stereo not drawn) [Compound 76, 6-Amino-3-(3-((2-amino-2-oxoethyl)amino)-4′-chloro-1′,2′-dihydrospiro[cyclopentane-1,3′-pyrrolo[2,3-b]pyridin]-5′-yl)-2-fluoro-N,N-dimethylbenzamide] registered an inhibitory constant (Ki) of 490 nM. With `CN(C)C(=O)c1c(N)ccc(-c2cnc3c(c2)[C@]2(CN3)C[C@H](O)C2)c1F` [Compound 77a, 6-Amino-2-fluoro-3-((1r,3r)-3-hydroxy-1′,2′-dihydrospiro[cyclobutane-1,3′-pyrrolo[2,3-b]pyridin]-5′-yl)-N,N-dimethylbenzamide] the figure was 160 nM; with `CN(C)C(=O)c1c(N)ccc(-c2cnc3c(c2)[C@]2(CN3)C[C@@H](O)C2)c1F` [Compound 77b, 6-Amino-2-fluoro-3-((1s,3s)-3-hydroxy-1′,2′-dihydrospiro[cyclobutane-1,3′-pyrrolo[2,3-b]pyridin]-5′-yl)-N,N-dimethylbenzamide], 217 nM; with `CN(C)C(=O)c1c(N)ccc(-c2cnc3c(c2)[C@]2(CN3)C[C@](C)(O)C2)c1F` [Compound 78a, 6-Amino-2-fluoro-3-((1r,3r)-3-hydroxy-3-methyl-1′,2′-dihydrospiro[cyclobutane-1,3′-pyrrolo[2,3-b]pyridin]-5′-yl)-N,N-dimethylbenzamide], 927 nM.

On to `CN(C)C(=O)c1c(N)ccc(-c2cnc3c(c2)[C@]2(CN3)C[C@@](C)(O)C2)c1F` [Compound 78b, 6-Amino-2-fluoro-3-((1s,3s)-3-hydroxy-3-methyl-1′,2′-dihydrospiro[cyclobutane-1,3′-pyrrolo[2,3-b]pyridin]-5′-yl)-N,N-dimethylbenzamide], for which the affinity corresponds to a Ki of 165 nM.

As for `CN(C)C(=O)c1c(N)ccc(-c2cnc3c(c2)C2(CNC(=O)C2)CN3)c1F` (stereo not drawn) [Compound 79, 6-Amino-2-fluoro-N,N-dimethyl-3-(5-oxo-1′,2′-dihydrospiro[pyrrolidine-3,3′-pyrrolo[2,3-b]pyridin]-5′-yl)benzamide], the inhibitory constant (Ki) is 659 nM. Compared with the last compound, the Ki is about 4-fold higher. With `CO[C@H]1C[C@]2(CNc3ncc(-c4ccc(N)c(C(=O)N(C)C)c4F)c(Cl)c32)C1` [Compound 80a, 6-Amino-3-((1r,3r)-4′-chloro-3-methoxy-1′,2′-dihydrospiro[cyclobutane-1,3′-pyrrolo[2,3-b]pyridin]-5′-yl)-2-fluoro-N,N-dimethylbenzamide] the figure was 97.6 nM.

The values above are taken from US12208088B2 (Genentech, Inc., priority 2018, dated 2025).
